Test results from patent US11141462B2, “Method for the treatment or prevention of osteoarthritis” (Chondropeptix B.V., priority 2016, dated 2021).

How the values were obtained:
Format in all cases: cell-based, human
[1] = system: Isolated chondrocytes from OA patients; experiment: Treatment of isolated chondrocytes from OA patients, gene expression by qRT-PCR; conditions: 1 nM, 24 h; qRT-PCR normalized for 28S rRNA; n=6
Protocol: Isolated chondrocytes from OA patients (n=6) were treated with BMP-7 (1 nM) or the 12-mer peptide according to SEQ ID NO: 43 (1 nM) for 24 h. Pro-chondrogenic (FIG. 8A) and hypertrophic (FIGS. 8B, 8C and 8D) gene expression was determined via qRT-PCR and normalized for 28S rRNA levels.

[2] = system: cartilage explants from OA patient's knee articular cartilage; experiment: Treatment of cartilage explants, hypertrophic gene expression by qRT-PCR; conditions: 10 nM, 24 h
Protocol: 4 mm 2 cartilage explants were taken from non-lesion areas of OA patient's knee articular cartilage (n=5) and randomly assigned to different experimental treatment conditions (4 explants per treatment group). After a 24 h equilibration period the explants were treated with BMP-7 (1 nM) or the 12-mer peptide according to SEQ ID NO: 43 (10 nM) for 24 h. Hypertrophic gene expression was determined via qRT-PCR and normalized for 28S rRNA levels. After treatment with BMP-7 or the 12 mer we observed a downregulation of pro-hypertrophic genes, such as Col10a1 (FIG. 9A) and MMP13 (FIG. 9B).

[3] = system: OA articular chondrocytes; experiment: OA chondrocyte phenotype gene expression screening of BMP-7 peptides (RT-qPCR); design: key to COX-2 / COL2A1 / SOX9: [+] denotes a significantly increased expression of chondrogenic marker genes SOX9 and COL2A1, or a significantly decreased expression of OA phenotypic marker COX-2 in OA articular chondrocytes, in comparison to untreated OA articular chondrocytes; key to IL-6 / ADAMTS5 / COL10A / BAPX1/NKX3.2 / ALP / RUNX2: —: [-] denotes the absence of a significant effect or a significantly decreased expression of chondrogenic marker genes BAPX1/NKX3.2, or a significantly increased expression of OA phenotypic markers IL-6, ADAMTS5, COL10A, ALP and RUNX2 in OA articular chondrocytes, in comparison to untreated OA articular chondrocytes; conditions: for COL2A1 / COX-2 / SOX9: Table 5; for suppression of the OA chondrocyte phenotype: independent of the tested concentration (1000, 100, 10 and 1 nM were tested)
Protocol: (§1) FIG. 2: The action of 20-mer peptides (10 nM) of SEQ ID NO: 2-17 (peptides with 1 or 2 amino acids intervals (18-19 amino acid overlap)) and a random peptide with a sequence according to SEQ ID NO: 49 on the expression of ADAMTS5 was determined on a validated pool of passage 2 OA human articular chondrocytes (n=18) and compared to full-length recombinant BMP-7 (1 nM). Samples were harvested after 24 hours and analyzed for indicated genes by RT-qPCR (normalized for 28S rRNA expression and relative to control conditions (no peptide exposure)). In the graphs, numbers on the x-axis represent individual peptides according to their SEQ ID NO's, error bars represent mean±SEM, statistical differences were calculated (one-way ANOVA with bonferroni correction) to control condition. *=p<0.05 lower than control condition for ADAMTS5. Random peptide is a peptide according to SEQ ID NO: 49.
as §1, with “3:” for “2:”, “ALP” for “ADAMTS5”, “ALP.” for “ADAMTS5.”
as §1, with “4:” for “2:”, “BAPX1/NKX3.2” for “ADAMTS5”, “BAPX1/NKX3.2.” for “ADAMTS5.”
as §1, with “5:” for “2:”, “COL10A1” for “ADAMTS5”, “COL10A1.” for “ADAMTS5.”
FIG. 6: The action of 20-mer peptides (10 nM) of SEQ ID NO: 2-17 (peptides with 1 or 2 amino acids intervals (18-19 amino acid overlap)) and a random peptide with a sequence according to SEQ ID NO: 49 on the expression of IL-6 was determined on a validated pool of passage 2 OA human articular chondrocytes (n=18) and compared to full-length recombinant BMP-7 (1 nM). […]

[4] = Table 1, gene expression in OA articular chondrocytes vs untreated
[5] = Table 2 (FIG. 2: 10 nM, 24 hours, RT-qPCR, 28S rRNA normalized), vs untreated OA articular chondrocytes
[6] = Table 2 (FIG. 3: 10 nM, 24 hours, RT-qPCR, 28S rRNA normalized), vs untreated OA articular chondrocytes
[7] = Table 2 (FIG. 4: 10 nM, 24 hours, RT-qPCR, 28S rRNA normalized), vs untreated OA articular chondrocytes
[8] = Table 2 (FIG. 5: 10 nM, 24 hours, RT-qPCR, 28S rRNA normalized), vs untreated OA articular chondrocytes
[9] = Table 2 (FIG. 6: 10 nM, 24 hours, RT-qPCR, 28S rRNA normalized), vs untreated OA articular chondrocytes
[10] = Table 2 (FIG. 7: 10 nM, 24 hours, RT-qPCR, 28S rRNA normalized), vs untreated OA articular chondrocytes
[11] = gene expression in OA articular chondrocytes vs untreated

Substance | ADAMTS5 [3, 5] | ALP [3, 6] | BAPX1/NKX3.2 [3, 7] | COL10A [3, 8] | IL-6 [3, 9] | RUNX2 [3, 10] | COL2A1 [3, 11] | COX-2 [3, 11] | SOX9 [3, 11] | further results
YSEGESAFPLNS (listed as Homo sapiens) [SEQ ID NO: 43] |  |  |  |  |  |  |  |  |  | COL10A1 (pro-hypertrophic) gene expression [1]: downregulation; COX-2 (pro-hypertrophic) gene expression [1]: downregulation; Col2a1 (pro-chondrogenic) gene expression [1]: upregulation; RUNX2 (pro-hypertrophic) gene expression [1]: downregulation; Col10a1 gene expression [2]: downregulation; MMP13 gene expression [2]: downregulation
VPKPSSAPTQLNAISVLYFD (listed as Homo sapiens) [SEQ ID NO: 5] |  |  |  |  |  |  |  |  |  | activity in the assays as employed herein (table 2) ([3]; peptides with additional amino acid N-terminal of position 100): lost its activity
26 (SSNVILKKYRNMVVRACGCH; listed as Homo sapiens) [compound 26] |  |  |  |  |  |  |  |  |  | ADAMTS5 [3, 4]: —; ALP [3, 4]: —; BAPX1/NKX3.2 [3, 4]: —; COL10A [3, 4]: —; IL-6 [3, 4]: —; RUNX2 [3, 4]: —
8 (SSAPTQLNAISVLYFDDSSN; listed as Homo sapiens) [compound 8] | + | + | + | + | + | + | + | + | + | 
6 (PKPSSAPTQLNAISVLYFDD; listed as Homo sapiens) [compound 6] | + | + | + | + | + | + | + | + | + | 
TQLNAISVLYFDDSSNVILK (listed as Homo sapiens) [SEQ ID NO: 10] |  |  |  |  |  |  |  |  |  | suppression of the OA chondrocyte phenotype [3]: efficiently suppressed the OA chondrocyte phenotype
SSNVILKKYRNMVVRASGSH (listed as Homo sapiens) [SEQ ID NO: 17] |  |  |  |  |  |  |  |  |  | suppression of the OA chondrocyte phenotype [3]: efficiently suppressed the OA chondrocyte phenotype
2 (FINPETVPKPSSAPTQLNAI; listed as Homo sapiens) [compound 2] | — | — | — | — | — | — |  |  |  | 
15 (FDDSSNVILKKYRNMVVRAS; listed as Homo sapiens) [compound 15] | + | + | + | + | + | — | + | + | + | 
22 (DLGWQDWIIAPEGYAAYYCE; listed as Homo sapiens) [compound 22] |  |  |  |  |  |  |  |  |  | ADAMTS5 [3, 4]: —; ALP [3, 4]: —; BAPX1/NKX3.2 [3, 4]: —; COL10A [3, 4]: —; IL-6 [3, 4]: —; RUNX2 [3, 4]: —
KPSSAPTQLNAISVLYFDDS (listed as Homo sapiens) [SEQ ID NO: 7] |  |  |  |  |  |  |  |  |  | suppression of the OA chondrocyte phenotype [3]: efficiently suppressed the OA chondrocyte phenotype
19 (STGSKQRSQNRSKTPKNQEA; listed as Homo sapiens) [compound 19] |  |  |  |  |  |  |  |  |  | ADAMTS5 [3, 4]: —; ALP [3, 4]: —; BAPX1/NKX3.2 [3, 4]: —; COL10A [3, 4]: —; IL-6 [3, 4]: —; RUNX2 [3, 4]: —
11 (LNAISVLYFDDSSNVILKKY; listed as Homo sapiens) [compound 11] | + | + | + | + | + | + | + | + | + | 
17 (SSNVILKKYRNMVVRASGSH; listed as Homo sapiens) [compound 17] | + | + | + | + | + | + | + | + | + | 
10 (TQLNAISVLYFDDSSNVILK; listed as Homo sapiens) [compound 10] | + | + | + | - | + | + | + | + | + | 
